One compound from ChEMBL document CHEMBL4831477, “Structure-Enabled Discovery of Novel Macrocyclic Inhibitors Targeting Glutaminase 1 Allosteric Binding Site” (J Med Chem, 2021) can be followed below.

Molecules are shown by their SMILES. Calls of active or inactive are those of the source. No cut-off for these calls is given here.

A short description of data set [1]: AUC(0 to t) in Sprague-Dawley rat at 200 mg/kg, po measured upto 72 hrs by LC-MS/MS analysis. Format: ADME, organism-based. On the set-up: route oral, dose 200 mg/kg, time <=72. The following applies: in vivo.
The nature of data set [2]: Metabolic stability in human liver microsomes assessed as clearance at 10 uM preincubated for 5 mins followed by NADPH addition by LC-MS/MS analysis. Format: ADME, Microsome. The following applies: read-out: CLH. Background: Microsomes from liver hold many membrane-bound enzymes, among them those of drug oxidation.
A short description of data set [3]: fCmax in BALB/c nude mouse plasma xenografted with human HCT-116 cells at 200 mg/kg, po administered twice daily for 28 days. The following applies: in vivo, 672 h, time 28 day. Format: ADME, organism-based.
A short description of data set [4]: Acute toxicity in BALB/c nude mouse assessed as heart damage at 200 mg/kg, po administered twice daily for 4 weeks by H and E staining based optical microscopic analysis. Format: organism-based. The note with it: in vivo, 672 h.
The test system of data set [5] is HCT-116. Put plainly: Antitumor activity against human HCT-116 cells xenografted in BALB/c nude mouse assessed as tumor destruction at 200 mg/kg, po administered twice daily measured after 28 days by H and E staining based optical microscopic method. The format is functional, organism-based. The note with it: time 28.0 day.
Data set [6] can be described thus: AUC(0 to t) in Sprague-Dawley rat at 5 mg/kg, iv measured upto 72 hrs by LC-MS/MS analysis. Format: ADME, organism-based. The note with it: in vivo. On the set-up: route intravenous, dose 5 mg/kg, time <=72.
Data set [7] has as its target T1, Glutaminase kidney isoform, mitochondrial (Mus musculus) (UniProt D3Z7P3).
T1 sequence (whole entry): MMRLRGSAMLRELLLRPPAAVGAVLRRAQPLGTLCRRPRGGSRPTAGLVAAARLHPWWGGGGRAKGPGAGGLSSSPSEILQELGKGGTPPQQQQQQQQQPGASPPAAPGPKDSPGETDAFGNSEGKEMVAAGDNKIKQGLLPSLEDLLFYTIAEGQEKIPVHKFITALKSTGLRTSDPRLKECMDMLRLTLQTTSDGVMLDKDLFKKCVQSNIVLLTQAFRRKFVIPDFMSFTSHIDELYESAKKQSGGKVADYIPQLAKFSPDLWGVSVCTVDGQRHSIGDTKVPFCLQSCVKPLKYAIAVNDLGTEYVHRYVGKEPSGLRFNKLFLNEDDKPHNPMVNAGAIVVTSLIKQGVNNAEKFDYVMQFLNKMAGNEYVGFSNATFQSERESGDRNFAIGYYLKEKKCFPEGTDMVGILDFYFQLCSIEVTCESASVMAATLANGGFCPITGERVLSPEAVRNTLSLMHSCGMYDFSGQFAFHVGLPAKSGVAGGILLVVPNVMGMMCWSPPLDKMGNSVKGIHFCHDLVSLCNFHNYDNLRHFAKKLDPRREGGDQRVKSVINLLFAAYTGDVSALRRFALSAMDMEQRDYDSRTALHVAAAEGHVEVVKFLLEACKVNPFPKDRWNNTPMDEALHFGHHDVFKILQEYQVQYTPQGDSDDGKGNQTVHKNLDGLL
Put plainly: In vivo inhibition of GLS1 in BALB/c mouse xenografted with human HCT-116 cells assessed as increase in glutamine level at 200 mg/kg, po. The format is functional, organism-based.

Data set [8] is described as follows: Acute toxicity in BALB/c nude mouse assessed as spleen damage at 200 mg/kg, po administered twice daily for 4 weeks by H and E staining based optical microscopic analysis. Format: organism-based. The note with it: in vivo, 672 h.
Data set [9] can be described thus: Cmax in BALB/c nude mouse plasma xenografted with human HCT-116 cells at 200 mg/kg, po administered twice daily for 28 days. On the set-up: route oral, time 28 day, dose 200 mg/kg. The format is ADME, organism-based.
A further data set relates to MDA-MB-436. Nature of the data set: Antiproliferative activity against human MDA-MB-436 cells assessed as reduction in cell viability incubated for 72 hrs by MTT assay. The format is functional, cell-based. The note with it: MDA-MB-436, 72 h. In general terms: Formazan colour is commonly taken as a measure of viable cells.
The nature of data set [10]: AUC(0 to infinity) in Sprague-Dawley rat at 5 mg/kg, iv measured upto 72 hrs by LC-MS/MS analysis. The format is ADME, organism-based. On the set-up: route intravenous, dose 5 mg/kg, time <=72. The following applies: Sprague-Dawley, in vivo.
Data set [11] in a line: Apparent volume of distribution in Sprague-Dawley rat at 5 mg/kg, iv measured upto 72 hrs by LC-MS/MS analysis. Format: ADME, organism-based. The note with it: in vivo, read-out: Vz.
Data set [12] has as its system HCT-116. Put plainly: Antitumor activity against human HCT-116 cells xenografted in BALB/c nude mouse assessed as large areas of necrosis at 200 mg/kg, po administered twice daily measured after 28 days by H and E staining based optical microscopic analysis. The format is functional, organism-based. The following applies: time 28.0 day. In general terms: Xenograft models place foreign cells or tissue in a host animal.

Data set [13] is described as follows: Apparent volume of distribution in Sprague-Dawley rat at 200 mg/kg, po measured upto 72 hrs by LC-MS/MS analysis. Format: ADME, organism-based. The following applies: in vivo.
The test system of data set [14] is HCT-116. Put plainly: Induction of ROS generation in human HCT-116 cells at 500 nM preincubated for 1 hr with NAC followed by compound addition by measured after 3 hrs DCFH-DA dye based flow cytometric analysis. Format: functional, cell-based.
Data set [15] concerns the target T1, Glutaminase kidney isoform, mitochondrial (Mus musculus). Put plainly: In vivo inhibition of GLS1 in BALB/c mouse xenografted with human HCT-116 cells assessed as reduction in glutamate level at 200 mg/kg, po. Format: functional, organism-based.

The term AUC(0-t) denotes the area under the concentration-time curve up to a stated or last time point. A lower AUC(0-t) goes with less exposure. The Cmax is the highest concentration seen after dosing. A word on the IC50: it is the concentration that inhibits the measured activity by half. One may read the AUC(0-inf) as the area under the concentration-time curve extrapolated to infinity. Low values mean less exposure, high ones more exposure. With `O=C1Cc2cccc(c2)OCC/C=C/CCOc2cccc(c2)CC(=O)Nc2nnc(s2)CCCCc2ccc(nn2)N1`, the AUC(0-t) at 72 h in data set [1] was 5920 ng·h/mL; in data set [6] it was 1630 ng·h/mL. For the same compound, in data set [2], the microsomal CLint at 10 µM amounted to 3.2 µL/min/mg. Further, the fCmax in data set [3] came to 0.21 µM. Further, the Activity result in [4] and in data set [8] was “Non-Toxic” in each case. Besides, the result in the data set with HCT-116 [5] and in the data set with HCT-116 [12] was Active. Moreover, the inhibition entry in [7] and in data set [15] was “Active” throughout. This compound also showed a Cmax in data set [9] of 1630 nM. In the data set with MDA-MB-436, the IC50 is 340 nM. In data set [10], this compound returned an AUC(0-inf) of 1670 ng·h/mL. Besides, the Vd in data set [11] worked out at 19.7 L/kg. In addition, the Vz in data set [13] was 58.6 L/kg. Moreover, the outcome in the data set with HCT-116 [14] was inactive.
